The record followed here is ChEMBL document CHEMBL5465560, “Selectivity Literature for EUbOPEN Chemogenomic Library” (2024).

Test [1] concerns the target Ribosomal protein S6 kinase alpha-5 (Homo sapiens) (UniProt O75582). Particulars: at 10 µM.
In test [2] the target is Wee1-like protein kinase 2 (Homo sapiens) (UniProt P0C1S8). Kind of test: Selectivity interaction (KinomeScan (DiscoverX)) EUB0000607a WEE2. Particulars: at 10 µM.
Test [3] concerns the target Serine/threonine-protein kinase B-raf (Homo sapiens) (UniProt P15056). Kind of test: Selectivity interaction (SelectScreen profiling (Invitrogen)) EUB0000607a BRAF. The conditions noted are these: at 2 µM.
In test [4] the target is Protein kinase C beta type (Homo sapiens, UniProt P05771). Nature of the test: Selectivity interaction (SelectScreen profiling (Invitrogen)) EUB0000607a PRKCB. Particulars: at 2 µM.
Chain of Protein kinase C beta type (P05771 2-671 limits assumed): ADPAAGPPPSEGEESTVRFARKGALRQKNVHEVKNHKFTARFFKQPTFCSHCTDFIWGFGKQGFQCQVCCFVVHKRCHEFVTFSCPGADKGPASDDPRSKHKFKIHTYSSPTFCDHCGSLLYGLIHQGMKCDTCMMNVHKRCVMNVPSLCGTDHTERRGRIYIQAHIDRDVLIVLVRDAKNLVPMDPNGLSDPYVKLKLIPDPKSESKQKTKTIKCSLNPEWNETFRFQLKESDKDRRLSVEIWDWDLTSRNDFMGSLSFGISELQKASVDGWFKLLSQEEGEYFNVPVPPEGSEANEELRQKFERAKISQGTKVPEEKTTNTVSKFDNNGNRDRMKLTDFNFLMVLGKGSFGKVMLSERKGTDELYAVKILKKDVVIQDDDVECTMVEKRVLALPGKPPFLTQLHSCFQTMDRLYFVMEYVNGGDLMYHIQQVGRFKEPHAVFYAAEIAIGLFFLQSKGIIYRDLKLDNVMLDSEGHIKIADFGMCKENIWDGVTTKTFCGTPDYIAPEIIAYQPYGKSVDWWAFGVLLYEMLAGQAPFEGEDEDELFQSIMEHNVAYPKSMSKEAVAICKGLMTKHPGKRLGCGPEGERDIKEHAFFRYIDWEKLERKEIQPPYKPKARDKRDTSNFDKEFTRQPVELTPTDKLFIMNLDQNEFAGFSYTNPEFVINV
Test [5] addresses T1, Mitogen-activated protein kinase kinase kinase 3 (Homo sapiens) (UniProt Q99759).
T1 sequence (whole entry): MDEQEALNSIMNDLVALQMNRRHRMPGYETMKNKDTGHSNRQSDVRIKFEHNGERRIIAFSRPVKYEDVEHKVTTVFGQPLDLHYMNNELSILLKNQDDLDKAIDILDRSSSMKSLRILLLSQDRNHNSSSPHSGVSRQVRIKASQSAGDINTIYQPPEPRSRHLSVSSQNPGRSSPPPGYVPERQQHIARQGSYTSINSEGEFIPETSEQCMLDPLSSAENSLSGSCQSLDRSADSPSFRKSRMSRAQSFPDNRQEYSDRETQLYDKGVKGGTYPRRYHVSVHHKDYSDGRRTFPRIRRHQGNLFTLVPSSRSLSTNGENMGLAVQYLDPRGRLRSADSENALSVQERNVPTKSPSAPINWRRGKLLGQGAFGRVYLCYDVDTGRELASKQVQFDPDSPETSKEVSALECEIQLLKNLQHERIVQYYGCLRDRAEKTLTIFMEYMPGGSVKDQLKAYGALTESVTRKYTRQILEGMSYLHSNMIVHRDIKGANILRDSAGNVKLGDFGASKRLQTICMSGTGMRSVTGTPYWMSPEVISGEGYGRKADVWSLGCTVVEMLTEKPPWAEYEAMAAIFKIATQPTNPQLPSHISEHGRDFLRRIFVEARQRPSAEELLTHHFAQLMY
Nature of the test: Selectivity interaction (Kinase panel (Invitrogen)) EUB0000639a MAP3K3. The conditions noted are these: at 200 nM.

Test [6] addresses T2, Cytoplasmic tyrosine-protein kinase BMX (Homo sapiens) (UniProt P51813).
T2 sequence (whole entry): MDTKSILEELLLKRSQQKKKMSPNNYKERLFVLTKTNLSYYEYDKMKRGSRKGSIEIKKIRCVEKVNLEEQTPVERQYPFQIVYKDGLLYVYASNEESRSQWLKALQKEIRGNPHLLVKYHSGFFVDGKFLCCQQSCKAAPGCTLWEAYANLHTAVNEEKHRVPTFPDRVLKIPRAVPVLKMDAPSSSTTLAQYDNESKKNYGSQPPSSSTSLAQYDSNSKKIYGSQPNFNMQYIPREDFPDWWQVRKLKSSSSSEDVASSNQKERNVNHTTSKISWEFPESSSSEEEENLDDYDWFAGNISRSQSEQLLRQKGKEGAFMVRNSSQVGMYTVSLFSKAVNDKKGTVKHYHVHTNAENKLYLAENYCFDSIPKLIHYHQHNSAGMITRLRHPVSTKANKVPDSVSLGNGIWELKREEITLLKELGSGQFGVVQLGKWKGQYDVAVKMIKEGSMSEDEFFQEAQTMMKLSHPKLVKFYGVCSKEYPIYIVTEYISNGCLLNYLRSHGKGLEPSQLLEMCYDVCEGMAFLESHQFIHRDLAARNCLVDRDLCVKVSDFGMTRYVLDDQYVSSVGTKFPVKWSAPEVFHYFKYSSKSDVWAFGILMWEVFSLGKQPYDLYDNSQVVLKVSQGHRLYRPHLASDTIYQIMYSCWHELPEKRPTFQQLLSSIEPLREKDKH
Kind of test: Selectivity interaction (Upstate Kinase Profiler service (Millipore)) EUB0000056c BMX. The conditions noted are these: at 1 µM.

In test [7] the target is Tyrosine-protein kinase Fes/Fps (Homo sapiens) (UniProt P07332). Kind of test: Selectivity interaction (KinomeScan (DiscoverX)) EUB0000092b FES. The conditions noted are these: at 10 µM.
Chain of Tyrosine-protein kinase Fes/Fps (Homo sapiens) (P07332 whole entry): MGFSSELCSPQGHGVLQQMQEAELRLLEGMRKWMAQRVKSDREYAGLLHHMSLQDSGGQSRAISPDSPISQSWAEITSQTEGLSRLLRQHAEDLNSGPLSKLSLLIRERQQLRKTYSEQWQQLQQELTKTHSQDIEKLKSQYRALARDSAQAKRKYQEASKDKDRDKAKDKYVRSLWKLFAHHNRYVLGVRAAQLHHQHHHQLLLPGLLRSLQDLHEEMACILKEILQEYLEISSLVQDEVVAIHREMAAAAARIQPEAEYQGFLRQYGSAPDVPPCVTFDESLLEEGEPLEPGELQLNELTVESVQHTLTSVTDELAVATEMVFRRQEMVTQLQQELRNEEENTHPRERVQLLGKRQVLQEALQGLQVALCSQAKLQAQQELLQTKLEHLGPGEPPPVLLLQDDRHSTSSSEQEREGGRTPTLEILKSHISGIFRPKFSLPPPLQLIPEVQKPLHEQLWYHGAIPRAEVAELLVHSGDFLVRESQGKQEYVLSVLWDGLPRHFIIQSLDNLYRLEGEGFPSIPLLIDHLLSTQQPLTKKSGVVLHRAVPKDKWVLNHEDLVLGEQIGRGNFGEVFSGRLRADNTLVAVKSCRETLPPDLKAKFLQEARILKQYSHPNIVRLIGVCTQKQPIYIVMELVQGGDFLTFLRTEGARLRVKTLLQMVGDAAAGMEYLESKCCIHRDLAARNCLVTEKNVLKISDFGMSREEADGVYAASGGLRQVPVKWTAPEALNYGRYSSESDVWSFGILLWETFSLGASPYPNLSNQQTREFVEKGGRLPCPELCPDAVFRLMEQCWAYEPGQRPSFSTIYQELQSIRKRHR
Test [8] has as its target T3, Phosphatidylinositol 5-phosphate 4-kinase type-2 beta (Homo sapiens) (UniProt P78356).
T3 sequence (whole entry): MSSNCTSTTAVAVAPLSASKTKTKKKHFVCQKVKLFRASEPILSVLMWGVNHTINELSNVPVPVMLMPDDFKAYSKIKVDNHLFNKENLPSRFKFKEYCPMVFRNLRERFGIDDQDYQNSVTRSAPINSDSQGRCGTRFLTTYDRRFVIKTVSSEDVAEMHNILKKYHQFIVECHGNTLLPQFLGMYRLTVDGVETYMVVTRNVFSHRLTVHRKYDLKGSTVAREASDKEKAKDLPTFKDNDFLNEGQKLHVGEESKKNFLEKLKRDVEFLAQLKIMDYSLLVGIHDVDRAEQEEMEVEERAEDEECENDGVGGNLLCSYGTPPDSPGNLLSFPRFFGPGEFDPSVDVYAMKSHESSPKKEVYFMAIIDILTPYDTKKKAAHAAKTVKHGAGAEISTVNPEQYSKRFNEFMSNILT
Nature of the test: Selectivity interaction (KinomeScan (DiscoverX)) EUB0001079a PIP4K2B. Particulars: at 1 µM.

Another test deals with Mu-type opioid receptor (Homo sapiens, UniProt P35372). Kind of test: Selectivity interaction (Panel of kinases, GPCRs, ion channels and transporters (enzymatic assay)) EUB0000266bCl OPRM1.
Chain of Mu-type opioid receptor (P35372 whole entry): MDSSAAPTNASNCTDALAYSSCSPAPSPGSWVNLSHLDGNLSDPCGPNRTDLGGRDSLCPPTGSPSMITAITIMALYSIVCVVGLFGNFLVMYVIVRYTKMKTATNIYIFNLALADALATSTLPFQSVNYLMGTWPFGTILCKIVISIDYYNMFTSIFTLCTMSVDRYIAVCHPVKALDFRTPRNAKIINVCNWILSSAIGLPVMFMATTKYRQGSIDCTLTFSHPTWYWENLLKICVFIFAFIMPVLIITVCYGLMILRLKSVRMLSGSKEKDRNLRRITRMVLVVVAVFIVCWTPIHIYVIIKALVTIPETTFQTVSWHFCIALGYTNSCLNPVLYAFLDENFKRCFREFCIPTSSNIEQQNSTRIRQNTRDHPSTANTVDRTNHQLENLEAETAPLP
Test [9] has as its target Serine/threonine-protein kinase PAK 4 (Homo sapiens, UniProt O96013). Nature of the test: Selectivity interaction (KinomeScan (DiscoverX)) EUB0000229b PAK4. Particulars: at 10 µM.
Test [10] concerns the target STE20/SPS1-related proline-alanine-rich protein kinase (Homo sapiens) (UniProt Q9UEW8). Kind of test: Selectivity interaction (Kinome Scan (DiscoverX)) EUB0000229b STK39. The conditions noted are these: at 10 µM.

Chain of Serine/threonine-protein kinase PAK 4 (O96013 whole entry, looked up): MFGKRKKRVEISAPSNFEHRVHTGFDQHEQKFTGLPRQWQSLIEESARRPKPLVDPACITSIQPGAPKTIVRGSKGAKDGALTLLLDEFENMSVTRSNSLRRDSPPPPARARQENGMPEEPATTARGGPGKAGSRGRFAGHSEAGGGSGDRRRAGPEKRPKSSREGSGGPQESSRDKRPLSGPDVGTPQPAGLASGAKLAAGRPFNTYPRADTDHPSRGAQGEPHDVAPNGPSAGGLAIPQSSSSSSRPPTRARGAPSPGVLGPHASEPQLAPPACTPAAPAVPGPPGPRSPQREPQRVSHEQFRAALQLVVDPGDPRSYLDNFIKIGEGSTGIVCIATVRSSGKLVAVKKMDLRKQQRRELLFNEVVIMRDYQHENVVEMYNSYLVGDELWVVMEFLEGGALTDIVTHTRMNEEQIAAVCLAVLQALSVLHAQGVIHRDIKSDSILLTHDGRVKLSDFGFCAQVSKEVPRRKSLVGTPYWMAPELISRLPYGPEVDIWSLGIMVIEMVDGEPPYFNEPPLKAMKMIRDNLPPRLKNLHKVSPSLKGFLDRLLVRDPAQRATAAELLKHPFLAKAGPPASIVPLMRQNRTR
Chain of Ribosomal protein S6 kinase alpha-5 (Homo sapiens) (O75582 whole entry, looked up): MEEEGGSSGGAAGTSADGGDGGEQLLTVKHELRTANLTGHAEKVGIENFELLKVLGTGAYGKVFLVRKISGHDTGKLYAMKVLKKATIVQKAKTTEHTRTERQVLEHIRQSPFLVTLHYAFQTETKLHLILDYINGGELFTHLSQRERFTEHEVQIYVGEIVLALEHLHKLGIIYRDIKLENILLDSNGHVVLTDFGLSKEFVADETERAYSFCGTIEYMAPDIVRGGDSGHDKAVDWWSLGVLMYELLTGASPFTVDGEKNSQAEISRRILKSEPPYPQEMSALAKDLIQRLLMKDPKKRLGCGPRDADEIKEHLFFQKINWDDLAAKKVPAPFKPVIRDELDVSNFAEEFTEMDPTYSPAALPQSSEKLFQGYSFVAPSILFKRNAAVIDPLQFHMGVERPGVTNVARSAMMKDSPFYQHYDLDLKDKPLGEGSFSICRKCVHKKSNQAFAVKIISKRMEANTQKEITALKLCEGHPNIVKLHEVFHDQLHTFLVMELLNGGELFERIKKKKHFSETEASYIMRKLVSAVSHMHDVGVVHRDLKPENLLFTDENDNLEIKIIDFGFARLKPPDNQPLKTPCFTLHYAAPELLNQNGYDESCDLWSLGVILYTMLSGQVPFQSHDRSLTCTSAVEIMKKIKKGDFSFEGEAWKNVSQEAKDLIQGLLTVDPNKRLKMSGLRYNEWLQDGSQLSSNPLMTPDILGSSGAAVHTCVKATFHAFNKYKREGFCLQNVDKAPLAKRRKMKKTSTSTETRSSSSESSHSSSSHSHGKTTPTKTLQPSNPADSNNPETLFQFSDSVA
Chain of Serine/threonine-protein kinase B-raf (Homo sapiens) (P15056 whole entry): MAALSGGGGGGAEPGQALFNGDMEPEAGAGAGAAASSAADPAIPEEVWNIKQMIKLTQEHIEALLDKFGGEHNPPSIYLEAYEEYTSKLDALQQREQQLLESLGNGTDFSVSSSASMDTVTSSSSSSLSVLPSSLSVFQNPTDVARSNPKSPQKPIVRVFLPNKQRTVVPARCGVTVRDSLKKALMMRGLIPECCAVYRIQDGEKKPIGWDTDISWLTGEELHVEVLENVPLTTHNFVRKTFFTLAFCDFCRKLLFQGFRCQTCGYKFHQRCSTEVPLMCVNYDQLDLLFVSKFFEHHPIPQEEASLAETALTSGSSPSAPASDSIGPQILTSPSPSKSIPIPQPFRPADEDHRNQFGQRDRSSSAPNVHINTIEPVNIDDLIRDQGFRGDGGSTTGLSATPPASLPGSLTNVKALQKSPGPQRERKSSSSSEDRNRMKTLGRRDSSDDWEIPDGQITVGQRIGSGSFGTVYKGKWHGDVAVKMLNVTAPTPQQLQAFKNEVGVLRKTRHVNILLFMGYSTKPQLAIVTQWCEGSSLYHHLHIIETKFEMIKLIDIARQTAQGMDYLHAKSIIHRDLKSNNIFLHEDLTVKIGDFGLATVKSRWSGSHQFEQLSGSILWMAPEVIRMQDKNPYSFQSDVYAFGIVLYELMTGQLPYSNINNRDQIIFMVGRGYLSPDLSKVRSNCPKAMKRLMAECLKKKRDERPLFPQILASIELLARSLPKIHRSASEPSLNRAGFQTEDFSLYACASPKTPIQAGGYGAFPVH
Chain of Wee1-like protein kinase 2 (Homo sapiens) (P0C1S8 whole entry, looked up): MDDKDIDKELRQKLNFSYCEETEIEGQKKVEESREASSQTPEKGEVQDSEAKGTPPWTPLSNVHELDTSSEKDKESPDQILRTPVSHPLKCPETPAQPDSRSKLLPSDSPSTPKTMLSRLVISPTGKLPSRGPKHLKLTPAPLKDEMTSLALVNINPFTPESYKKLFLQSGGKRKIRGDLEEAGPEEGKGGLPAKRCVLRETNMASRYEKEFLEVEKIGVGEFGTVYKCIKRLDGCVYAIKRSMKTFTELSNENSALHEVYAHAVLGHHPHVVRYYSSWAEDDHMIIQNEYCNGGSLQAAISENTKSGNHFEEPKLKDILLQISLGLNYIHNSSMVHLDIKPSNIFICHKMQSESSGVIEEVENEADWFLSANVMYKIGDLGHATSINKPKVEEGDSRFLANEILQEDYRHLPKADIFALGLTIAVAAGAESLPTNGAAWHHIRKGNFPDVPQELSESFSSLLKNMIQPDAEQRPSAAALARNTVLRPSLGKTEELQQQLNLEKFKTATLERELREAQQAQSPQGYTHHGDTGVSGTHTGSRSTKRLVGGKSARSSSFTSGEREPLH

`CCN(CC)CCCCNc1ncc2cc(-c3cc(OC)cc(OC)c3)c(NC(=O)NC(C)(C)C)nc2n1` showed a % of control in test [1] of 100%. In [2], `CNC(=O)Nc1ccc(-c2nc(N3CC4CCC(C3)O4)c3cnn(C4CCC5(CC4)OCCO5)c3n2)cc1` showed a % of control of 100%. In addition, the % of inhibition came out at 6% in test [3] and 9% in [4].

Consider `CC[C@@H]1[C@H](F)C(=O)N[C@@H]1COc1nccc2cc(C(N)=O)c(OC)cc12` [ZIMLOVISERTIB], for which, in [5], the % of inhibition is -5.54%.

For the compound `Cc1ccc(-c2ccc3c(ccc4sc5c(c43)NC[C@@H](C)NC5=O)n2)cn1`, the % of inhibition in [6] is 4%. In the case of `CCC(=O)N1CCN(c2ccc(-n3c(=O)ccc4cnc5ccc(-c6cnc7ccccc7c6)cc5c43)cc2C(F)(F)F)CC1`, in test [7], the % of control is 41%. `Nc1cnc(N2CCc3cc(S(=O)(=O)Nc4c(F)cc(Cl)cc4F)cc(N4CCCC4=O)c32)nc1` [TP-020n] returned a % of control in [8] of 100%.

`CCn1c(-c2nc3cc(C(=O)N4CCCC(N)C4)ccc3n2C)cc2ccccc21` (stereo unspecified): the pXC50 on Mu-type opioid receptor is less than 4 M. Take `COc1cc(N(C)c2ccnc3ccc(C(F)(F)F)cc23)cc(OC)c1OC`: the % binding was 81% in test [9] and 98% in test [10].
